The values below come from US4432993A, “Method of treating obesity hyperglycemia, inflammation and platelet aggregation” (priority 1980, dated 1984).

For assay [1], the system named is genetically obese mice. As to the kind of experiment: Anti-obesity activity: carcass lipid in genetically obese mice. The format is in vivo. Here is the method:
The compounds were administered by oral gavage in water or carboxymethyl-cellulose suspension to genetically obese mice daily for 28 days. At the end of the time the carcass composition was determined.

For assay [2], the system named is Blood platelet response to collagen. Put plainly: Platelet aggregation inhibition activity (collagen-induced fall in blood platelet concentration). The format is in vivo, Male CFLP mice. The settings on record: 2 h after p.o. dose; collagen 400 μg/kg i.v.; Aspirin 600 μmol (108 mg)/kg, p < 0.05; Example 3 5 μmol (1.92 mg)/kg, p = 0.01. Here is the method: Male CFLP mice (ca 20 g, n=8) were dosed orally with compound or vehicle (controls) after an overnight fast. Two hours later each mouse received an intravenous dose of collagen (400 μg/kg, pH 6-6.6). Exactly 30 sec. after injection of collagen, each mouse was placed in a chamber of CO2 until respiration ceased. […] Each concentration was expressed as a percent of that obtained in a tail blood sample taken immediately before injection of collagen.

Assay [3] deals with inflammation induced in the rat ear by croton oil. Put plainly: Anti-inflammatory activity: croton oil induced inflammation of the rat ear. The format is in vivo. The settings on record: 2.0 mg/RAT EAR, 6 hours; activity = significant (5% level) reduction in ear weight vs non-drug treated control. Here is the method:
The method used is based on that described by G. Tonelli et al (Endocrinology, 77, 625-634, 1965). An inflammation is induced in the rat ear by the application of 50 μl of a 1% solution of croton oil in tetrahydrofuran, test compounds being dissolved in the irritant vehicle. After 6 hours the inflammation is assessed by killing the animals and weighing the ears. Topical anti-inflammatory activity of a compound is generally considered to be shown when a significant (5% level) reduction in ear weight is seen compared to non-drug treated control.

Where [4] appears, read: p.o. daily for 28 days, Ex. 5 mp 102-5: 4.8 mg/kg, control 21.10, Ex. 10: 8.6 mg/kg, control 23.13.

Take `Cc1ccc(CCCNCC(O)c2cc3ccccc3o2)cc1` (stereo not drawn) [Example 10, N-[3-(4-Methylphenyl)propyl]-2-(2-benzofuranyl)-2-hydroxyethanamine]: the “g LIPID/MOUSE, TREATED” value in assay [1] (setting [4]) turned out to be 19.72 g LIPID/MOUSE. `Cc1ccc(CC(C)NCC(O)c2cc3ccccc3o2)cc1` (stereo not drawn) [Example 1, N-[2-(4-Methylphenyl)-1-methylethyl]-2-(2-benzofuranyl)-2-hydroxy ethanamine]: in assay [1] (4.8 mg/kg p.o. daily, 15 days only, control 16.25), the “g LIPID/MOUSE, TREATED” value was 13.36 g LIPID/MOUSE.

With `COC(=O)COc1ccc(CC(C)NCC(O)c2cc3ccccc3o2)cc1` (stereo not drawn) [Example 3, N-[2-(4-Carbomethoxymethoxyphenyl)-1-methylethyl]-2-(2-benzofuranyl)-2-hydroxyethanamine], the “% Inhibition of response to collagen” value in assay [2] was 29%.

Regarding `CC(=O)Oc1ccccc1C(=O)O` [Aspirin, reference compound], the “% Inhibition of response to collagen” value in assay [2] is listed as 29%.

For `Cc1ccc(C[C@@H](C)NC[C@@H](O)c2cc3ccccc3o2)cc1` (relative stereo) [Example 5 mp 102-5, N-[2-(4-methylphenyl)-1-methylethyl]-2-(2-benzofuranyl)-2-hydroxyethanamine], the “ACTIVITY (topical anti-inflammatory)” value in assay [3] was “Active”. In assay [1] (setting [4]), the “g LIPID/MOUSE, TREATED” value was found to be 16.16 g LIPID/MOUSE.
